Laboratory results as given in article PMC5834442, “Identifying inhibitors of the Leishmania inositol phosphorylceramide synthase with antiprotozoal activity using a yeast-based assay and ultra-high throughput screening platform” (Scientific Reports, 2018).

System: L. donovani (MHOM/SD/62/1S-CL2D, LdBOB) axenic amastigotes
Test: Leishmania donovani axenic amastigote dose response assay (resazurin)
Format: cell-based
Conditions: -logIC50 mol against L. donovani (LdBOB) axenic amastigotes, read-out: pIC50 Axenic (converted)

SMILES | IC50
Nc1ncc(-c2ccccc2)cc1-c1nc2ccccc2[nH]1 [U18123/163/3] | 37.2 µM
O[C@@]1(c2ccc(F)cc2)CCCC[C@@H]1n1cncn1 [ST/2183803] | > 50 µM
CN1CCN(c2ccc3ncc(-c4cccc(NC(=O)Cc5cccs5)c4)n3n2)CC1 [R11466/151/4] | > 50 µM
O=C1CC(c2ccccc2)N(c2ccc(Cl)cc2)N1 (stereo not shown) [0014C 75***] | 26.9 µM
OC(CCC1CCCCC1)(Cn1ccnc1)c1ccc(F)cc1F (stereo not shown) [JJP/1777/3] | 14.1 µM
O=S(=O)(c1ccccc1)N1CCN(c2nccc(-c3cccs3)n2)CC1 [ST/1415180] | 39.8 µM
CSc1ccccc1NS(=O)(=O)c1cccs1 [ST/867134] | > 50 µM
Cc1oc(-c2ccc(Cl)cc2)cc1C(=O)NCC(=O)c1cccs1 [ST/1260077] | 34.7 µM
CC(c1ccccc1)N1Cc2cccc(C(=O)O)c2C1=O (stereo not shown) [ST/641236] | > 50 µM
Cc1cc(Cl)ccc1NC(=O)CN(c1ccccc1C(=O)O)S(=O)(=O)c1cccs1 [N9272-3-4] | > 50 µM
CCc1cccc(NC(=O)Nc2cc(F)ccc2F)c1 [SC/109224] | 15.1 µM
O=S(=O)(Nc1cccc2nsnc12)c1cccs1 [SC/96769] | 24.5 µM
O=C(NNC(=O)c1c(O)c2ccccc2[nH]c1=O)c1ccc(Cl)cc1Cl [SC/110880] | > 50 µM
Cc1ccccc1S(=O)(=O)N1CCN(c2nccc(-c3cccs3)n2)CC1 [ST/1415177] | 21.9 µM
Cc1c(-c2noc(-c3ccc(OC(C)C)c(Cl)c3)n2)ccc2c1CCNC2 [N11266-30-A1] | 22.4 µM
O=C(c1ccc(Cl)cc1)N1CCCn2c1nc1ccccc1c2=O [ST/1938375] | > 50 µM
O=S(=O)(Nc1cccc(F)c1CNCc1ccco1)c1ccc(Cl)c(Cl)c1 [DS105792-055A6B42] | 19.5 µM
NC(=O)c1cc(-c2csc(-c3ccsc3)n2)ccc1O [ST/1241904] | 20.9 µM
N#Cc1ccc(NC(=O)c2cccs2)cc1C#N [ST/646239] | 20.9 µM
O=C(O)c1cccc2c1C(=O)N(Cc1ccccc1F)C2 [ST/689197] | > 50 µM
COc1ccc(-c2ccc(S(=O)(=O)Nc3ncc(Cl)cc3Cl)s2)cc1 [DJ107456-088A34] | 27.5 µM
Cc1ccc(Nc2nc(C(N)=O)c(NC(=O)C3CCC3)s2)cc1 [ST/1548033] | > 50 µM
CC1CSC(N(C(=O)Cc2cccs2)c2ccc(Cl)cc2)=N1 (stereo not shown) [ST/815117] | 33.9 µM
CN1CC[C@@H](Oc2cc(CNC(=O)c3ccc(Br)cc3)ccc2Cl)C1 [DZ203929-138A2] | > 50 µM
CNc1nc(N)c([N+](=O)[O-])c(Nc2cccc(Cl)c2)n1 [ST/537896] | 19.5 µM

SMILES | IC50
CCOc1nc2ccccc2nc1NS(=O)(=O)c1ccccc1 [ST/646349] | 22.9 µM
O=S(=O)(Nc1cc(Cl)ccc1O)c1ccc(Cl)c(Cl)c1 [R10040/200/6] | 12 µM
COCC(C)NC(=O)c1c(O)nc2c(C)cccn2c1=O (stereo not shown) [ST/1131522] | > 50 µM
O=C(Nc1nnc(COc2ccc(F)cc2)s1)c1cnccn1 [ST/389620] | 33.1 µM
CCc1noc2nc(C)nc(NC3CCCCCC3)c12 [ST/1113587] | 46.8 µM
O=C1CCc2cc(-c3csc(-c4cccnc4)n3)ccc2N1 [R9196/29/59] | > 50 µM
O=C(Nc1ccc(OC(F)(F)F)cc1)c1ccc(Br)s1 [ST/631944] | 13.2 µM
O=C(Nc1c(Br)c(C2CC2)nn1-c1ccccc1)C(Cl)(Cl)Cl [SC/96415] | 20.4 µM
CCOc1cccc(C(=O)Nc2cc(-c3nc4ccccc4[nH]3)ccc2C)c1 [ST/591387] | 15.8 µM
O=S(=O)(Nc1cccc2nsnc12)c1ccccc1 [ST/663705] | 39.8 µM
CC(=O)N1N=C(COc2ccccc2Br)OC1C=Cc1ccccc1 (stereo not shown) [ST/1451035] | > 50 µM
COc1ccc(Cl)cc1NC(=O)Nc1cccc(F)c1 [SC/109667] | 11.5 µM
CN(C)CCNc1ccc2ncc(-c3ccc4ccccc4c3)n2n1 [ST/668081] | > 50 µM
O=C(Nc1ccc(F)c(Cl)c1)c1cc(-c2ccc(O)cc2)on1 [ST/1440432] | 10.5 µM
Cc1ccc(O)c(NC(=O)c2cccc(Br)c2)c1 [ST/867278] | 21.9 µM
CCOc1ccc2[nH]c(=O)c(CN(Cc3cccnc3)C(=O)Nc3ccc(F)cc3)cc2c1 [ST/696972] | > 50 µM
O=C(Nc1ccon1)c1cc2c(s1)CCCCCC2 [ST/1100321] | 19.5 µM
OC(Cn1cncn1)(c1ccc(F)cc1F)C1CCCS1 (stereo not shown) [JJP/1818/3] | > 50 µM
c1ccc2oc(-c3ccnc4nncn34)cc2c1 [ST/1803771] | > 50 µM
Nc1ccc(Br)cc1-c1nc(N)c2cc(Br)ccc2n1 [N4309-86-B1] | > 50 µM
Cc1cc(Cl)ccc1NC(=O)COc1ccccc1NS(=O)(=O)c1cccs1 [N6862-82-1] | 20 µM
Nc1ccc(S(=O)(=O)Nc2ccccc2Oc2ccc(Cl)cc2Cl)cc1 [SC/79553] | 10.5 µM
c1ccc(N2CCN(c3ncc(-c4cccs4)cn3)CC2)nc1 [SC/89927] | > 50 µM
O=c1nc(SCc2ccccc2Cl)c2c([nH]1)CCCC2 [ST/1287093] | > 50 µM
COc1cc2c(cc1S(=O)(=O)c1ccc(COc3cccc(F)c3)cc1)CCN(C)CC2 [DC101675-085A1] | > 50 µM

SMILES | IC50
Cc1cccc(C(=O)Nc2nc(-c3cccs3)ns2)c1 [ST/1197585] | 30.9 µM
CC(=O)N1N=C(c2ccccc2Cl)OC1COc1ccc(Cl)cc1 (stereo not shown) [ST/1451125] | 15.8 µM
COc1ccccc1-c1nc(-c2ccc(O)c(C(N)=O)c2)cs1 [ST/1261284] | 33.1 µM
Cc1ccc(C2=NN(S(=O)(=O)c3ccc(Cl)cc3F)C(C)C2)cc1 (stereo not shown) [U20197/52/94] | > 50 µM
Cc1ccc(C2=NN(S(=O)(=O)c3cc(Cl)sc3Cl)C(C)C2)cc1 (stereo not shown) [U20197/52/63] | 32.4 µM
CCc1ccccc1NC(=O)c1cc(-c2ccc(Cl)cc2)oc1C [ST/1545686] | > 50 µM
CCOc1cc(S(=O)(=O)N2CCN(Cc3ccc4c(c3)OCO4)CC2)ccc1Br [ST/910382] | 21.4 µM
COc1ccc(Br)cc1C(=O)Nc1cc(Cl)ccc1O [ST/1108634] | 16.6 µM
Cc1ncccc1Oc1ncc(Cl)cc1S(=O)(=O)Nc1cc(Cl)ccc1F [AV207107-102A1] | 12.6 µM
C=CCNc1nc(N)c([N+](=O)[O-])c(Nc2cccc(F)c2)n1 [ST/892571] | > 50 µM
O=C(Nc1ccccc1C(=O)NCc1ccc(Cl)cc1)c1ccco1 [ST/771851] | > 50 µM
COc1cccc(C(=O)Nc2nc(-c3cccs3)ns2)c1 [ST/1197587] | 21.9 µM
COc1ccc2cc(C(=O)Nc3ccc(F)c(Cl)c3)[nH]c2c1 [ST/803999] | 11.2 µM
Cn1c(=O)c(Oc2ccc(Cl)cc2)c(O)c2ccccc21 [ST/832324] | > 50 µM
Cc1ccnc2nc(C(=O)N3CCCSC3=Nc3cccc(C(F)(F)F)c3)nn12 [ST/682329] | 31.6 µM
O=S(=O)(Nc1c(F)cccc1C(F)(F)F)c1ccc(-c2ccccc2F)s1 [DJ107456-080A211] | 26.9 µM
O=S(=O)(Nc1cccc(F)c1CNCc1ccco1)c1ccccc1Cl [DS105792-055A7B42] | 32.4 µM
COc1ccc(S(=O)(=O)Nc2ccccc2C(F)(F)F)c(Cl)c1Cl [ST/534228] | 19.5 µM
CN1CCN(CC(=O)Nc2ccc3c(c2)CCC3)CC1c1ccccc1 (stereo not shown) [ST/961462] | > 50 µM
Nc1nonc1-c1nc2c(-c3cccc(F)c3)nccc2n1C1CCNCC1 [IS203450-048A1] | 40.7 µM
O=c1nc(SCc2ccccc2F)c2c([nH]1)CCCC2 [ST/915519] | > 50 µM
Fc1ccc(-c2nn3c(OCC(F)(F)F)cccc3c2-c2ccncc2)cc1 [U12546/102/3] | 13.5 µM
O=C(Nc1cccc(Cl)c1)Nc1ccc2snnc2c1 [ST/736217] | 13.5 µM
CCCCCc1c(C)nc(Nc2ccccc2)[nH]c1=O [ST/1105254] | 17.4 µM
Cc1cc(C(=O)N(C2=NC(C)CS2)c2ccc(Cl)cc2)no1 (stereo not shown) [ST/807832] | > 50 µM

SMILES | IC50
Brc1ccc(OCc2nc3ccccc3[nH]2)cc1 [ST/839801] | 49 µM
O=S(=O)(Nc1cccc(Cl)c1Cl)c1cccs1 [ST/906545] | 21.4 µM
CC(NC(=O)c1c(O)c2sccc2[nH]c1=O)c1ccc(F)cc1 (stereo not shown) [ST/1962332] | > 50 µM
CC(C(O)(Cn1cncn1)c1ccc(F)cc1F)S(C)(=O)=O (stereo not shown) [JCH/31/2] | > 50 µM
O=C(Nc1oc2ccc(Cl)cc2c(=O)c1-c1ccc(Br)cc1)c1ccco1 [ST/802162] | 25.1 µM
N#Cc1ccc(NCCOc2ccc3ccccc3c2)nc1 [ST/1543199] | > 50 µM
CC1CSC(N(C(=O)Cn2cnnn2)c2ccc(Cl)cc2)=N1 (stereo not shown) [ST/811532] | > 50 µM
CCc1ccc2c(c1)c(=O)c(C(=O)O)cn2CC(F)(F)F [ST/2184718] | 36.3 µM
O=S(=O)(Nc1ccccc1Br)c1ccc(Cl)c(C(F)(F)F)c1 [ST/630987] | 19.1 µM
Cc1cnc(NS(=O)(=O)c2ccc(-c3ccc(F)cc3)s2)c(Br)c1 [DJ107456-057A22] | 28.2 µM
CCOc1cc2c(cc1S(=O)(=O)c1ccc(COc3ccc(F)cc3)cc1)CCN(C)CC2 [AL101938-139A1] | 31.6 µM
O=C(Nc1cc(Cl)c(O)c(Cl)c1)c1ccc(Br)cc1 [ST/869684] | 17.8 µM
Cc1ccc2cc(C(=O)Nc3ccc(C)c(N)c3)sc2c1 [ST/551412] | 20.4 µM
O=C(Nc1ccc(NC(=O)c2cccs2)cc1Cl)c1ccccc1 [ST/1125044] | > 50 µM
O=C(c1ccccc1)N1C(=O)C(c2ccccc2)Oc2ccccc21 (stereo not shown) [ST/629481] | 24.5 µM
O=C(c1ccco1)c1cn(Cc2ccc(F)cc2)c2ccccc12 [ST/727705] | 28.8 µM
O=S(=O)(Nc1ccccc1CN1CCC(F)(F)C1)c1ccc(Cl)c(Cl)c1 [DS105792-004A16B1] | 22.4 µM
O=C(NCc1ccccc1)c1sccc1NS(=O)(=O)c1ccccc1 [RF44798-098A22] | 21.4 µM
O=c1c(O)c(-c2ccccc2)oc2cc(O)cc(O)c12 [ST/2097267] | 20.4 µM
FC(F)(F)c1ccc(Nc2nc(-c3ccncc3)cs2)cc1 [ST/510927] | 27.5 µM
O=C(Nc1nnc(C(F)(F)F)s1)c1ccc(Br)s1 [ST/782334] | 11.7 µM
O=C(NCc1cccs1)c1sccc1NS(=O)(=O)c1ccccc1 [RF44798-098A21] | 12.3 µM
